Assay results reported in the supplement of paper PMC13207355.
Structures can show the parent of a compound that is named as a salt.

What was measured:
Details in all cases: exposure time: 72 h
[1] = test system: E57 (patient-derived glioblastoma stem cells of mesenchymal subtype); assay: surviving fraction (nuclei count normalised to DMSO); higher = more cells surviving (less toxic)
[2] = test system: E34 (patient-derived glioblastoma stem cells of proneural subtype); assay: as above
[3] = test system: E21 (patient-derived glioblastoma stem cells of mesenchymal subtype); assay: as above
[4] = test system: E13 (patient-derived glioblastoma stem cells of classical subtype); assay: as above
[5] = test system: E28 (patient-derived glioblastoma stem cells of classical subtype); assay: as above
[6] = test system: E31 (patient-derived glioblastoma stem cells of proneural subtype); assay: as above
[7] = test system: FT3469 (normal neural stem cell line); assay: as above
[8] = test system: E57; assay: phenotypic distance (Euclidean, principal components) from DMSO controls (arbitrary units); higher = stronger morphological change
[9] = test system: E34; assay: as above
[10] = test system: E21; assay: as above
[11] = test system: E13; assay: as above
[12] = test system: E28; assay: as above
[13] = test system: E31; assay: as above
[14] = test system: FT3469; assay: as above
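Wherever phenotypic distance (Euclidean, principal components) from DMSO controls is given: cell Painting imaging in 384-well plates, CellProfiler features reduced to at least 20 principal components, Euclidean distance versus same-plate DMSO vehicle wells (0.1% v/v), median over six images per well.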
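Wherever surviving fraction (nuclei count normalised to DMSO) is given: nuclei counted by high-content imaging of Hoechst-stained cells in laminin-coated 384-well plates, relative to 0.1% DMSO vehicle wells, with staurosporine as cell-death control.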

CCOC(=O)OC(C)OC1=C(C(=O)Nc2ccccn2)N(C)S(=O)(=O)c2ccccc21 (centres undefined) [Ampiroxicam]
Details	phenotypic distance	surviving fraction
[1], 4.1 nM	–	0.955
[1], 12.3 nM	–	1.02
[1], 37 nM	–	0.962
[1], 111.1 nM	–	1.02
[1], 333.3 nM	–	0.943
[1], 1000 nM	–	1.06
[1], 3000 nM	–	1.08
[2], 4.1 nM	–	1.14
[2], 12.3 nM	–	0.946
[2], 37 nM	–	0.986
[2], 111.1 nM	–	1.1
[2], 333.3 nM	–	1.01
[2], 1000 nM	–	0.932
[2], 3000 nM	–	0.984
[3], 4.1 nM	–	0.957
[3], 12.3 nM	–	0.928
[3], 37 nM	–	0.953
[3], 111.1 nM	–	0.847
[3], 333.3 nM	–	1.09
[3], 1000 nM	–	0.883
[3], 3000 nM	–	1.01
[4], 4.1 nM	–	0.882
[4], 12.3 nM	–	0.885
[4], 37 nM	–	1.02
[4], 111.1 nM	–	0.926
[4], 333.3 nM	–	1.08
[4], 1000 nM	–	0.895
[4], 3000 nM	–	0.916
[5], 4.1 nM	–	0.815
[5], 12.3 nM	–	1.1
[5], 37 nM	–	0.896
[5], 111.1 nM	–	0.884
[5], 333.3 nM	–	0.939
[5], 1000 nM	–	1.08
[5], 3000 nM	–	0.871
[6], 4.1 nM	–	0.83
[6], 12.3 nM	–	0.849
[6], 37 nM	–	0.967
[6], 111.1 nM	–	1
[6], 333.3 nM	–	0.856
[6], 1000 nM	–	1.02
[6], 3000 nM	–	1.08
[7], 4.1 nM	–	0.768
[7], 12.3 nM	–	1.05
[7], 37 nM	–	1.02
[7], 111.1 nM	–	1.05
[7], 333.3 nM	–	1.04
[7], 1000 nM	–	1.08
[7], 3000 nM	–	0.95
[8], 4.1 nM	0.796	–
[8], 12.3 nM	0.83	–
[8], 37 nM	0.552	–
[8], 111.1 nM	0.54	–
[8], 333.3 nM	0.507	–
[8], 1000 nM	1.03	–
[8], 3000 nM	0.908	–
[9], 4.1 nM	0.789	–
[9], 12.3 nM	0.855	–
[9], 37 nM	0.505	–
[9], 111.1 nM	0.762	–
[9], 333.3 nM	0.521	–
[9], 1000 nM	0.542	–
[9], 3000 nM	0.73	–
[10], 4.1 nM	0.574	–
[10], 12.3 nM	0.804	–
[10], 37 nM	0.922	–
[10], 111.1 nM	0.659	–
[10], 333.3 nM	0.834	–
[10], 1000 nM	0.819	–
[10], 3000 nM	0.71	–
[11], 4.1 nM	0.946	–
[11], 12.3 nM	0.661	–
[11], 37 nM	0.814	–
[11], 111.1 nM	0.688	–
[11], 333.3 nM	0.952	–
[11], 1000 nM	0.72	–
[11], 3000 nM	0.529	–
[12], 4.1 nM	1.28	–
[12], 12.3 nM	0.987	–
[12], 37 nM	0.538	–
[12], 111.1 nM	0.744	–
[12], 333.3 nM	0.444	–
[12], 1000 nM	0.516	–
[12], 3000 nM	0.705	–
[13], 4.1 nM	0.739	–
[13], 12.3 nM	0.998	–
[13], 37 nM	0.78	–
[13], 111.1 nM	0.734	–
[13], 333.3 nM	0.689	–
[13], 1000 nM	0.71	–
[13], 3000 nM	0.801	–
[14], 4.1 nM	0.638	–
[14], 12.3 nM	0.959	–
[14], 37 nM	0.379	–
[14], 111.1 nM	1.16	–
[14], 333.3 nM	0.73	–
[14], 1000 nM	1.03	–
[14], 3000 nM	0.924	–

COc1cc(NS(C)(=O)=O)ccc1Nc1c2ccccc2nc2ccccc12 [Amsacrine]
Details	phenotypic distance	surviving fraction
[1], 4.1 nM	–	0.935
[1], 12.3 nM	–	0.759
[1], 37 nM	–	0.484
[1], 111.1 nM	–	0.21
[1], 333.3 nM	–	0.192
[1], 1000 nM	–	0.161
[1], 3000 nM	–	0.0825
[2], 4.1 nM	–	0.977
[2], 12.3 nM	–	0.867
[2], 37 nM	–	0.823
[2], 111.1 nM	–	0.552
[2], 333.3 nM	–	0.493
[2], 1000 nM	–	0.484
[2], 3000 nM	–	0.379
[3], 4.1 nM	–	0.908
[3], 12.3 nM	–	1.08
[3], 37 nM	–	0.72
[3], 111.1 nM	–	0.45
[3], 333.3 nM	–	0.388
[3], 1000 nM	–	0.197
[3], 3000 nM	–	0.0813
[4], 4.1 nM	–	0.946
[4], 12.3 nM	–	0.807
[4], 37 nM	–	0.489
[4], 111.1 nM	–	0.414
[4], 333.3 nM	–	0.414
[4], 1000 nM	–	0.387
[4], 3000 nM	–	0.132
[5], 4.1 nM	–	0.875
[5], 12.3 nM	–	0.529
[5], 37 nM	–	0.427
[5], 111.1 nM	–	0.474
[5], 333.3 nM	–	0.374
[5], 1000 nM	–	0.467
[5], 3000 nM	–	0.126
[6], 4.1 nM	–	0.573
[6], 12.3 nM	–	0.509
[6], 37 nM	–	0.314
[6], 111.1 nM	–	0.247
[6], 333.3 nM	–	0.288
[6], 1000 nM	–	0.244
[6], 3000 nM	–	0.0342
[7], 4.1 nM	–	0.745
[7], 12.3 nM	–	0.751
[7], 37 nM	–	0.593
[7], 111.1 nM	–	0.731
[7], 333.3 nM	–	0.745
[7], 1000 nM	–	0.645
[7], 3000 nM	–	0.363
[8], 4.1 nM	0.741	–
[8], 12.3 nM	2.05	–
[8], 37 nM	4.75	–
[8], 111.1 nM	10.6	–
[8], 333.3 nM	10.7	–
[8], 1000 nM	8.66	–
[8], 3000 nM	6.92	–
[9], 4.1 nM	0.614	–
[9], 12.3 nM	1.45	–
[9], 37 nM	2.78	–
[9], 111.1 nM	6.15	–
[9], 333.3 nM	5.83	–
[9], 1000 nM	4.78	–
[9], 3000 nM	3.81	–
[10], 4.1 nM	0.893	–
[10], 12.3 nM	1.83	–
[10], 37 nM	2.5	–
[10], 111.1 nM	6.57	–
[10], 333.3 nM	6.68	–
[10], 1000 nM	5.68	–
[10], 3000 nM	7.87	–
[11], 4.1 nM	0.565	–
[11], 12.3 nM	1.43	–
[11], 37 nM	4.51	–
[11], 111.1 nM	6.51	–
[11], 333.3 nM	6.57	–
[11], 1000 nM	6.84	–
[11], 3000 nM	7.75	–
[12], 4.1 nM	1.15	–
[12], 12.3 nM	2.1	–
[12], 37 nM	3.15	–
[12], 111.1 nM	2.93	–
[12], 333.3 nM	3.24	–
[12], 1000 nM	3.28	–
[12], 3000 nM	4.07	–
[13], 4.1 nM	1.63	–
[13], 12.3 nM	3.02	–
[13], 37 nM	3.7	–
[13], 111.1 nM	3.82	–
[13], 333.3 nM	2.97	–
[13], 1000 nM	3	–
[13], 3000 nM	6.79	–
[14], 4.1 nM	0.866	–
[14], 12.3 nM	1.42	–
[14], 37 nM	1.99	–
[14], 111.1 nM	2.25	–
[14], 333.3 nM	2.14	–
[14], 1000 nM	2.2	–
[14], 3000 nM	3.03	–

N=c1ccn2c(n1)O[C@H]1[C@H](O)[C@@H](CO)O[C@H]12 [Ancitabine hydrochloride]
Details	phenotypic distance	surviving fraction
[1], 4.1 nM	–	0.931
[1], 12.3 nM	–	0.805
[1], 37 nM	–	0.73
[1], 111.1 nM	–	0.655
[1], 333.3 nM	–	0.409
[1], 1000 nM	–	0.321
[1], 3000 nM	–	0.212
[2], 4.1 nM	–	0.976
[2], 12.3 nM	–	1.09
[2], 37 nM	–	0.963
[2], 111.1 nM	–	0.86
[2], 333.3 nM	–	0.71
[2], 1000 nM	–	0.689
[2], 3000 nM	–	0.593
[3], 4.1 nM	–	0.896
[3], 12.3 nM	–	0.889
[3], 37 nM	–	0.909
[3], 111.1 nM	–	0.832
[3], 333.3 nM	–	0.693
[3], 1000 nM	–	0.636
[3], 3000 nM	–	0.422
[4], 4.1 nM	–	0.857
[4], 12.3 nM	–	0.724
[4], 37 nM	–	0.884
[4], 111.1 nM	–	0.812
[4], 333.3 nM	–	0.716
[4], 1000 nM	–	0.67
[4], 3000 nM	–	0.49
[5], 4.1 nM	–	0.837
[5], 12.3 nM	–	1.18
[5], 37 nM	–	0.826
[5], 111.1 nM	–	0.886
[5], 333.3 nM	–	0.687
[5], 1000 nM	–	0.653
[5], 3000 nM	–	0.482
[6], 4.1 nM	–	0.978
[6], 12.3 nM	–	0.749
[6], 37 nM	–	0.721
[6], 111.1 nM	–	0.594
[6], 333.3 nM	–	0.669
[6], 1000 nM	–	0.394
[6], 3000 nM	–	0.176
[7], 4.1 nM	–	0.699
[7], 12.3 nM	–	0.86
[7], 37 nM	–	0.964
[7], 111.1 nM	–	0.691
[7], 333.3 nM	–	0.668
[7], 1000 nM	–	0.679
[7], 3000 nM	–	0.682
[8], 4.1 nM	3.74	–
[8], 12.3 nM	1.61	–
[8], 37 nM	2.27	–
[8], 111.1 nM	3.75	–
[8], 333.3 nM	6.65	–
[8], 1000 nM	7.84	–
[8], 3000 nM	8.89	–
[9], 4.1 nM	1.44	–
[9], 12.3 nM	0.954	–
[9], 37 nM	1.24	–
[9], 111.1 nM	1.69	–
[9], 333.3 nM	2.92	–
[9], 1000 nM	3.78	–
[9], 3000 nM	5.02	–
[10], 4.1 nM	1.35	–
[10], 12.3 nM	1.44	–
[10], 37 nM	1.87	–
[10], 111.1 nM	2.14	–
[10], 333.3 nM	3.95	–
[10], 1000 nM	5.57	–
[10], 3000 nM	6.36	–
[11], 4.1 nM	1.7	–
[11], 12.3 nM	1.23	–
[11], 37 nM	1.32	–
[11], 111.1 nM	1.29	–
[11], 333.3 nM	2.15	–
[11], 1000 nM	3.33	–
[11], 3000 nM	5.43	–
[12], 4.1 nM	2.22	–
[12], 12.3 nM	2	–
[12], 37 nM	1.29	–
[12], 111.1 nM	1.66	–
[12], 333.3 nM	1.88	–
[12], 1000 nM	2.56	–
[12], 3000 nM	2.87	–
[13], 4.1 nM	1.4	–
[13], 12.3 nM	1.46	–
[13], 37 nM	1.63	–
[13], 111.1 nM	2.22	–
[13], 333.3 nM	2.92	–
[13], 1000 nM	3.39	–
[13], 3000 nM	3.87	–
[14], 4.1 nM	1.34	–
[14], 12.3 nM	0.713	–
[14], 37 nM	1.46	–
[14], 111.1 nM	1.24	–
[14], 333.3 nM	3.06	–
[14], 1000 nM	2.47	–
[14], 3000 nM	2.06	–
